Reference: patent EP0488224A2, “Fermentationproduct of a Verticimonosporium strain and feed additivs containing a linear peptide” (MITSUBISHI KASEI CORPORATION, priority 1990, dated 1992)
Where two headings read alike, the source gives them in different places.

Assays:
Caenorhabditis elegans = assay: Anti-nematode activity (1): growth and motility of nematodes in suspension; type: cell-based; set-up: key: 5 scales, - ±, +, ++ and +++; 5 scales, - ±, +, ++ and +++; 5 scales, - ±, +, ++ and +++; 5 scales, - ±, +, ++ and +++; 5 scales, - ±, +, ++ and +++; settings: 12.5 ppm, 20 °C, one week
Description: Anti-nematode activity of substance MBA090-18 was evaluated using Caenorhabditis elegans, a soil […] nematode.
Caenorhabditis elegans was suspended into sterilized water at the density of 20 - 30 heads/100 µl. To the suspension was added substance MBA090-18 at the concentration of 12.5 ppm. The mixture was incubated at 20 °C for one week while the growth and motility of nematodes being observed. […] The anti-nematode activity was evaluated and expressed according to the following 5 scales, - ±, +, ++ and +++.

[1] = Acute toxicity on oral administration; type: in vivo; settings: five male mouse
Description: The acute toxicity of substance MBA090-18 was determined using five male mouse on oral administration.

[2] = value from a literature; cited from earlier work
rumen fermentation = assay: Effect on feed efficiency in vivo (rumen content of a goat given feed additive); settings: 80 mg/day in feed, percentage to control (100)
Description: The effect of linear peptide compounds on the feed effeciency was evaluated in vivo using a ruminant animal.
A goat (a native species of Japan, 25 Kg) equipped with rumen fistula was used. As a feed additive, either of linear peptide compounds, MBA090-18 and gramicidin D, was administered to the animal. The rumen content was collected through the fistula and subjected to the assay in the same manner as described in the above Experiment 4 to obtain the total amount of VFAs, the production ratio of propionic acid to acetic acid (PA/AA) and the number of survival protozoas. In the table, values are shown as the percentage to the control values (100) obtained by keeping animal with the same feed ration to which neither of test compounds has been added.

rumen bacterial solution = assay: Effect on digestion of cellulose by rumen bacterial solution; set-up: species or system goat; settings: 5 µg/ml, 37 °C, 3 days; 0 µg/ml control 72
Description: The effect of substance MBA090-18 on the digestion of cellulose in the rumen was evaluated.
A goat (a native species of Japan, 20 Kg) equipped with rumen fistula was again used. A preparation of rumen bacterial solution was prepared by collecting the rumen content through the fistula, followed by a prompt centrifugation at 3000 rpm for 10 min to remove feed debris and protozoa.
To the 10 ml of the bacterial solution was added 50 ml of a basal medium described in the above Experiment 3 except that 0.4 g of cellulose powder and 6 mg of vitamin mixture are supplemented. The flask is then sealed anaerobically under CO₂ gas and incubated at 37 °C for 3 days. When the incubation finished, the cultured broth was assayed about the digestion of cellulose.

Compound	Antinematode Activity growth (Caenorhabditis elegans)	Antinematode Activity mobility (Caenorhabditis elegans)	acute toxicity [1] [mg/kg]	other results
CN[C@H]1C[C@@H](N)[C@H](O)[C@@H](O[C@@H]2O[C@H](CO)[C@H](O)[C@@H]3OC4(O[C@H]23)O[C@H]([C@@H](N)CO)[C@H](O)[C@H](O)[C@H]4O)[C@@H]1O (some centres unmarked) [Hygromycin B]	++	±		
CC[C@@H](C(=O)[C@@H](C)[C@@H](O)[C@H](C)[C@@H]1O[C@@H]([C@@H](CC)C(=O)O)CC[C@@H]1C)[C@H]1O[C@]2(C=C[C@@H](O)[C@]3(CC[C@@](C)([C@H]4CC[C@](O)(CC)[C@H](C)O4)O3)O2)[C@H](C)C[C@@H]1C [Salinomysin]			50	
Avermectin	+++	+++		acute toxicity [2]: 35 mg/kg
Gramicidin D				total VFAs (%) (rumen fermentation): 103%; PA/AA (%) (rumen fermentation; propionic acid to acetic acid): 125%; Protozoa (%) (rumen fermentation; surviving protozoa): 86%
Monensin			43.8	Digestion Rate of Cellulose (%) (rumen bacterial solution): 10%
